# Reference: paper PMC4773869, “Influence of plasma-activated compounds on melanogenesis and tyrosinase activity” (Scientific Reports, 2016)
# Legend:
# [1] = tested on: B16F10 cells; assay: Cell morphology of melanoma cells (microscopy); type: cell-based, murine; conditions: 14-42 μg/ml, 24 hr, as-synthesized
# Experimental: For cell morphology, the melanoma cells were seeded in cell culture plates (SPL Korea) and incubated at 37 °C (5% CO2 atmosphere). The cells were then incubated with the various concentrations of 4b and 6a (0 (con), 14, 21, 28, 35, and 42 μg/ml) following 24 hr incubation. The cell morphology was accessed and images were captured using an inverted fluorescent microscope (Nikon, ECLIPSE, Ti).
# [2] = target: mushroom tyrosinase (Agaricus bisporus, UniProt C7FF04); assay: Kinetic analysis of the inhibition of mushroom tyrosinase (Lineweaver-Burk and Dixon plots); type: biochemical; conditions: Lineweaver-Burk plot; substrate L-DOPA; as-synthesized compound
# Experimental: Latter, we studied the kinetic behavior of mushroom tyrosinase during the oxidation of L-DOPA with the selective ED compounds (4b and 6a). In the present investigation, the oxidation reaction of L-DOPA by mushroom tyrosinase follows the Michaelis-Menten kinetics. The inhibitory mechanism of both of the compounds was determined by using Lineweaver-Burk plot (double reciprocal plot) as well as a Dixon plot at various concentrations of substrate L-DOPA (0.0, 0.125, 0.25, 0.5, 1.0 and 2.0 mM), as shown in Fig. 4. The double-reciprocal plot of enzyme activity in the presence of compound 4b with concentration 0.0, 18.0, 36.5, 73, 146 μM and compound 6a with concentration 0.0, 6.7, 13.5, 27 μM are shown in Fig. 4(a,b), respectively. […] The Dixon plot was determined by 1/V versus inhibitor concentrations [I] at various concentrations of substrate in mM. […] Further, to determine the action of these eugenol derivatives on the structure of tyrosinase enzyme, we performed CD analysis and molecular docking studies. A series of experiments were performed to determine the inhibition kinetics using the following method. […] The formation of DOPAchrome was continuously monitored at 475 nm for 5 min at a 30 sec intervals in the microplate reader after the addition of the enzyme.
# [3] = tested on: tyrosinase expression in B16F10 cells; assay: Western blot, tyrosinase expression; type: cell-based, murine; conditions: 24 hr
# Experimental: Melanoma cells were incubated with as-synthesized and plasma-treated 4b and 6a test compounds for 24 hr. Following incubation, treated and untreated cells were lysed in RIPA buffer (Cell Signaling Technology, USA), whole cell protein was extracted and subjected to electrophoresis in 12% SDS-PAGE, and blotted onto nitrocellulose membranes. The membrane was probed with the antibodies raised against MITF, tyrosinase and TRP1 (Abcam, USA). The bands were detected using Super Signal West Pico Chemiluminescent Substrate (Pierce, Rockford, IL, USA) and images were taken using a Vilver imaging system (Vilver, Upland, CA, USA).
# [4] = tested on: intracellular ROS in B16F10 cells; assay: Intracellular ROS measurement (carboxy-H2DCFDA); type: cell-based, murine; conditions: for intracellular ROS level, PAED compared to ED: plasma-treated compound versus as-synthesized compound
# Experimental: Intracellular reactive oxygen species (ROS) were quantified using carboxy-H2DCFDA (5-(and 6)-carboxy-20,70-dichlorodihydrofluorescein diacetate), by monitoring the fluorescence intensity.
# Briefly, various concentrations of as-synthesized 4b and 6a or plasma-treated 4b and 6a were incubated with cells. After 24 hr, the cells were centrifuged for 5 min at 1000 rpm and the collected cell pellet was washed with PBS and labeled with carboxy-H2DCFDA dye following 30 min of incubation at 37 °C. The samples were centrifuged again and each pellet was mixed with 500 μl PBS. The 200 μl samples were then transferred in 96-well plates (black plate, clear bottom, corning incorporated USA) and fluorescence was measured at excitation/emission: 485/528 nm using a microplate reader.
# mushroom tyrosinase, sequence (C7FF04 2-392): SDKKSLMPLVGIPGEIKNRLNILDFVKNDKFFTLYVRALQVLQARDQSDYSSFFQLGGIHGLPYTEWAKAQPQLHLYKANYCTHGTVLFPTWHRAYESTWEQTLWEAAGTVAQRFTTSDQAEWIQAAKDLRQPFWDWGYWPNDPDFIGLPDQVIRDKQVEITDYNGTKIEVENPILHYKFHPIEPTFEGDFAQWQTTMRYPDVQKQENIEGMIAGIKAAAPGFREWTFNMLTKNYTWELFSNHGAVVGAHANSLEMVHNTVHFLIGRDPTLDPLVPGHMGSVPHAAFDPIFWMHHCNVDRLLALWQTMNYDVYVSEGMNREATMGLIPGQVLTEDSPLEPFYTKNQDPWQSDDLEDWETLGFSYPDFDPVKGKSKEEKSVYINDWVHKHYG
Compound,effect on cell morphology [1],type of inhibition [2],cellular tyrosinase expression versus control ([3]; ED (as-synthesized)),cellular tyrosinase expression versus control ([3]; PAED (plasma-treated)),"intracellular ROS level, PAED compared to ED [4]","intracellular ROS, comparison between compounds ([4]; independent of plasma treatment)"
"C=CCc1ccc(OC(=O)COC(=O)/C=C/c2ccc(O)cc2)c(OC)c1 [6a, 2-[2-methoxy-4-(prop-2-en-1-yl)phenoxy]-2-oxoethyl(2E)-3-(4-hydroxyphenyl)prop-2-enoate]",no effect on cell morphology,uncompetitive inhibitor,no change,no change,higher intracellular ROS levels,–
"C=CCc1ccc(OC(=O)COC(=O)c2ccc(O)cc2)c(OC)c1 [4b, 2-[2-methoxy-4-(prop-2-en-1-yl)phenoxy]-2-oxoethyl 4-hydroxybenzoate]",no effect on cell morphology,competitive inhibitor,no change,no change,higher intracellular ROS levels,higher intracellular ROS than 6a
